Marks after values point to notes of the source that are not given here.
Key:
[1] = PCNB concentration after gamma irradiation in samples of P. quinquefolium and in methanol solution; assay type: physicochemical; conditions: for concentration of the remaining PCNB / concentration of the remaining PCNB as compared to before treatment: 2 ppm PCNB in methanol solution
[2] = Concentration of marker components (ginsenosides) in P. quinquefolium samples after gamma irradiation (HPLC); assay type: physicochemical; conditions: for concentration of marker components of P. quinquefolium (ginsenoside): mean ± SD, three repeats; for effect of gamma irradiation on concentration of marker components: 10 kGy and 15 kGy gamma irradiation, P. quinquefolium samples
Method: Samples of P. quinquefolium that have respectively received gamma irradiation in dosages of 0, 10, 15, and 20 kGy were analyzed to find out the concentration of marker components therein, with the samples that have not received gamma irradiation as the control group. To extract marker components from the samples for analysis, 10 g of the samples were taken and prepared in 50 ml of 70% aqueous methanol solution, and heated in a convection heater at 60° C. for 15 minutes, followed by centrifugation in order to obtain the extract solution. Subsequently, the residual of the samples were subjected to the above-mentioned procedure again, and the extracted solution from the two rounds of procedures were mixed together and filtered, followed by the addition of 70% aqueous methanol solution to bring the volume up to 100 ml; the resulted solution was then stored at −20° C. and analyzed within 3 days. Before carrying out the analysis of ingredients, an adequate amount of the resulted solution was underwent filtration through a 0.22 μm pore size membrane, and then 20 μl of the solution was injected into a high performance liquid chromatographer for analysis (HPLC, Waters model 2695) each time; the analyses were carried out in combination with UV light—Visible light sensor of Waters model 2487, and a silicon-based reverse phase C-18 column (Cosmosil 5C18-MS-II, 5 μm, 4.6×250 mm, Nacalai Tesque, Inc., Kyoto, Japan) was used for analyzing the marker components of P. quinquefolium in the solution. The marker components of P. quinquefolium tested in the experiment included ginsenoside Rb1, ginsenoside Rg1, ginsenoside Rc, ginsenoside Rd, and ginsenoside Re; the detection wavelength of UV light was 203 ηm. The solution of 15% aqueous phosphoric acid (H3PO4)—acetonitrile (CH3CN) (81:19 to 60:40) was used as the moving phase, and the moving phase was analyzed at 25° C. and 1.0 ml/min of flow velocity after being filtered with a 0.45 μm filtration membrane, so as to measure the concentration of the marker components in samples of P. quinquefolium that received various dosages of gamma irradiation.

[3] = P. quinquefolium samples containing 2 ppm PCNB, 20 kGy
[4] = 0 kGy gamma irradiation (control group)

O=[N+]([O-])c1c(Cl)c(Cl)c(Cl)c(Cl)c1Cl [PCNB, pentachloronitrobenzene]
concentration of the remaining PCNB ([1]; 20 kGy): 0.056 ppm
concentration of the remaining PCNB as compared to before treatment ([1]; 20 kGy): 2.79%
concentration of the remaining PCNB ([1]; 25 kGy): 0.008 ppm
concentration of the remaining PCNB as compared to before treatment ([1]; 25 kGy): 0.86%
PCNB concentration as % of the original concentration [1, 3]: 4.01%
PCNB concentration remaining [1, 3]: 0.08 ppm

CC(C)=CCC[C@](C)(O[C@@H]1O[C@H](CO[C@@H]2O[C@@H](CO)[C@H](O)[C@H]2O)[C@@H](O)[C@H](O)[C@H]1O)[C@H]1CC[C@]2(C)[C@@H]1[C@H](O)C[C@@H]1[C@@]3(C)CC[C@H](O[C@@H]4O[C@H](CO)[C@@H](O)[C@H](O)[C@H]4O[C@@H]4O[C@H](CO)[C@@H](O)[C@H](O)[C@H]4O)C(C)(C)[C@@H]3CC[C@]12C [Rc, ginsenoside Rc]
concentration of marker components of P. quinquefolium (ginsenoside) [2, 4]: 16.12 ± 0.47 mg/g
effect of gamma irradiation on concentration of marker components [2]: would not affect
concentration of marker components of P. quinquefolium (ginsenoside) ([2]; 10 kGy gamma irradiation): 15.91 ± 0.43 mg/g
concentration of marker components of P. quinquefolium (ginsenoside) ([2]; 15 kGy gamma irradiation): 15.08 ± 0.27 mg/g
concentration of marker components of P. quinquefolium (ginsenoside) ([2]; 20 kGy gamma irradiation): 14.46 ± 0.28 mg/g

CC(C)=CCC[C@](C)(O[C@@H]1O[C@H](CO[C@@H]2O[C@H](CO)[C@@H](O)[C@H](O)[C@H]2O)[C@@H](O)[C@H](O)[C@H]1O)[C@H]1CC[C@]2(C)[C@@H]1[C@H](O)C[C@@H]1[C@@]3(C)CC[C@H](O[C@@H]4O[C@H](CO)[C@@H](O)[C@H](O)[C@H]4O[C@@H]4O[C@H](CO)[C@@H](O)[C@H](O)[C@H]4O)C(C)(C)[C@@H]3CC[C@]12C [Rb1, ginsenoside Rb1]
concentration of marker components of P. quinquefolium (ginsenoside) [2, 4]: 31.37 ± 0.15^a) mg/g
effect of gamma irradiation on concentration of marker components [2]: would not affect
concentration of marker components of P. quinquefolium (ginsenoside) ([2]; 10 kGy gamma irradiation): 31.01 ± 0.11 mg/g
concentration of marker components of P. quinquefolium (ginsenoside) ([2]; 15 kGy gamma irradiation): 30.59 ± 0.63 mg/g
concentration of marker components of P. quinquefolium (ginsenoside) ([2]; 20 kGy gamma irradiation): 29.39 ± 0.36 mg/g
